In US20250186403A1 (ARIZONA BOARD OF REGENTS ON BEHALF OF THE UNIVERSITY OF …, priority 2022, published 2025):

How the values were obtained:
[1] = test system: Prp8 intein splicing in Cne-WT; experiment: Western blot, in vivo Prp8 intein splicing in Cne; format: cell-based, Cryptococcus neoformans; conditions: Cne-WT incubated with CMN 18 h
Description: TCEP is added to a final concentration of 100 µM and incubated for 24 h. The substrate Nano-Glo luciferase (Promega) was added, and the resulting luminescence was read. IC50 was calculated using GraphPad prism. […] TCEP was added to a concentration of 1 mM and incubated for 24 h. From this reaction mixture, 10 μl was mixed with an equal volume of 2×SDA-PAGE loading dye and loaded onto 12% SDS-PAGE gel without boiling the sample. The gel was scanned with UV using Chemidoc (Bio Rad), and band intensities were quantified using Image Lab software. […] Cells were harvested and washed in PBS, lysed with bead lyser, and centrifuged at 10,000 rpm. An equal quantity of protein (50 μg) from each treatment was loaded onto 12% SDS-PAGE and blotted onto the NC membrane, blocked with 5% skimmed milk. The membrane was probed with anti-prp8 intein rabbit polyclonal sera, followed by goat anti-rabbit HRP antibody. Signals were developed using a chemiluminescent kit. The density of the spliced intein bands (˜20 kDa) were quantified using Image lab software. A band at ˜130 kDa is uncharacterized, as explained below. NC: nitrocellulose. Abs: absorbance
DMSO was used as a control. An equal volume of freshly grown Cne-WT culture (0.2 OD at 600 nm) was added to obtain the final absorbance of 0.1 OD. […] Intensities of bands were quantified by image lab software and compared with that of control.

[2] = target: T1, recombinant Drosophila Hh protein (C-Hh-Y) (Drosophila melanogaster, UniProt Q02936); experiment: Hh cholesterolysis assay; format: biochemical; conditions: CMN at up to 200 µM, 22 h
T1 construct: His tag (inferred from 'purified similarly', i.e. Ni-NTA); made in house; host or cells: E. coli LMG194
Description: The Tm values were calculated by Thermal shift software. […] The assay was repeated three times. […]
The hedgehog FRET protein C-Hh-Y was expressed and purified similarly, except that the protein was expressed in E. coli strain LMG194, induced with arabinose at 16° C. overnight, and the purified protein was stored in a storage buffer containing 10% glycerol and 4 mM TCEP.
Hh cholesterolysis assay: Cholesterolysis assay was done as per published methodology with modifications. […] With 50 μl reaction volume, a fixed volume of DMSO or CNM with varying concentrations (final 6.25 to 200 µM) were added and incubated at RT for 30 min. Cholesterolysis was induced by adding 1 μl stock solution of cholesterol in ethanol to each tube to attain a final concentration of 200 µM. After incubating at RT for 22 h, 20 μl of the reaction mixture was mixed with an equal volume of reducing SDS-PAGE loading buffer and loaded onto the 12% SDS-PAGE gel, followed by coomassie blue staining. Gel images were taken using the ChemiDoc imaging system (Bio-Rad). Band densities were analyzed using the Image lab software and compared with Student's t-test using the GraphPad Prism software version 9.1.0.

Pharmacokinetics in mice = format: in vivo; conditions: 40 mg/kg BW oral gavage, male C57BL/6 mice, plasma
Description: Blood samples were collected at 0, 0.5, 1, 2, 4, 8, 12, 16, 24, and 36 h after oral gavage. […] Other PK parameters are in Table 4. The values represent means±SD. […] On day 0, mice were infected with H99 (10^7 cells/mice) intranasally or mock-infected with PBS. Mice were euthanized on day 5, and lungs were dissected out, homogenized in RPMI-1640-MOPS media, and plated onto Sabouraud dextrose agar plates containing antibiotics. Plates were incubated at 30° C. for 72 h, and colonies were counted. […] VC: Vehicle control, (90% corn oil, 10% DMSO). Dpi: Days post-infection. CFU: Colony-forming units.
Pharmacokinetics in mice: C57BL/6 mice (male, 2-3 months old) were obtained from breeding stocks maintained at the University of Arizona. All mice were housed under conditions of controlled temperature (22° C.) with the on-off light cycle, food, and water provided ad libitum and were fasted for 12 h before administration of the compound. […] Blood samples were collected from the tail vein using heparinized capillary tubes at 0, 0.5, 1, 2, 4, 8, 12, 16, 24, and 36 h after oral gavage. Plasma was separated and stored at −30° C. until use. For extraction of the compound, 5 μl of plasma from each mouse were mixed with 30 μL methanol and 10 μl of internal standard (IS; UAWJ102 50 ng/ml). The mixture was vortexed for 30 seconds and diluted with 760 µL Milli Q water, and loaded onto an ISOLUTER C18 SPE Columns (1 ml/100 mg, Biotage, Salem, NH) pre-conditioned with 1 ml methanol followed by 1 ml water, and the cartridge was then washed with 1 ml water. The analytes were finally eluted from the cartridges with 1 ml methanol containing 5% ammonia solution, dried with nitrogen, and reconstituted in 100 μl methanol.
The analyte was detected and quantified using LC-MS (Agilent 1290 UPLC system Agilent Technologies, Santa Clara, CA) and a Sciex Qtrap6500+ Mass Spectrometer (AB SCIEX, Framingham, MA). Analytes were separated on an EclipsePlus C18 column (2.1×50 mm, 1.8 μm, Agilent) at a temperature of 35° C., with mobile phase A containing 0.1% formic acid (v/v) in water and mobile phase B containing 0.1% formic acid (v/v) in methanol. Elution was at a flow rate of 0.2 mL/min as follows: 10% B (0-0.5 min), 10% B→95% B (0.5-3.5 min), 95% B (3.5-7 min), […] (7-7.1 min), 10% B (7.1-10 min). The MS was operated in the positive ion mode, using electrospray ionization. The ion spray voltage and temperature were set at 5000 V and 500° C., respectively. Curtain gas, ion source gas 1, and ion source gas 2 were set at 25, 50, 50 psi, respectively.

T1 sequence (Q02936 258-471): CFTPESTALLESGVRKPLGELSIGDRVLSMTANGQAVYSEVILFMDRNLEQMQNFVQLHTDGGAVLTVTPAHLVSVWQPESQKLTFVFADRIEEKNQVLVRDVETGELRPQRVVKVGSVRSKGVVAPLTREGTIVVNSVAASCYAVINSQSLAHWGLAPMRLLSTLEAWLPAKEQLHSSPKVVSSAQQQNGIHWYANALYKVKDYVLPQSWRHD

**Q.** Which “spliced intein (approximately 20 kDa) in western blot” value [1] does the source give for `CNc1ccc2oc(C[C@H]3O[C@@]4(CC[C@H]3C)O[C@H]([C@H](C)C(=O)c3ccc[nH]3)[C@H](C)C[C@H]4C)nc2c1C(=O)O` [CMN, calcimycin] here?
**A.** Its value is “dose-dependent reduction in spliced intein”.

**Q.** What about the “density of spliced product, hedgehog cholesterolysis” value [2] of the same compound?
**A.** The value was “did not change the density of spliced product”.

**Q.** And the t½ (Pharmacokinetics in mice; mean ± S.D. n = 5)?
**A.** Its t½ is 7.2 h.

**Q.** And the Tmax (Pharmacokinetics in mice; male, C57BL/6, mouse, po, 40 mg/kg, mean ± S.D. n = 5)?
**A.** Its Tmax is about 10 h.

**Q.** And the half-life (Pharmacokinetics in mice; male, C57BL/6, mouse, po, 40 mg/kg, mean ± S.D. n = 5, read-out: t½ (converted))?
**A.** The half-life was 7.6 h.

**Q.** What about the Cmax (Pharmacokinetics in mice; mouse, mean ± S.D. n = 5) of the same compound?
**A.** Its Cmax is 301 ng/mL.
